Laboratory results taken from US20250388575A1, “HETEROBIFUNCTIONAL COMPOUNDS AND METHODS OF TREATING DISEASE” (Halda Therapeutics OpCo, Inc., priority 2022, published 2025).
Read-outs that look alike come from different tables or passages of the source.

Key:
[1] = tested on: VCaP cells; assay: Cellular growth inhibition assay for VCaP cells, CellTiter-Glo; format: cell-based, human; details: VCaP cells, 72 hours, CellTiter-Glo, read-out: GI50
Procedure, shortened: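 GI50 values come from four-parameter curve fits of luminescence data normalized to a zero baseline. Compound, in medium with 0.5% DMSO, was added one day after plating and left for 72 h before CellTiter-Glo 2.0 addition.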

[2] = tested on: T-Rex 293 cell line SC3 cells having increased expression of androgen receptor protein; assay: Cellular growth inhibition, T-Rex 293 SC3 cells with increased androgen receptor expression (doxycycline), CellTiter-Glo; format: cell-based; details: T-Rex 293 SC3 cells with increased androgen receptor expression (exposed to 10 ng/mL doxycycline), 72 hours, CellTiter-Glo; read-out: GI50
Procedure, shortened: (§1)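 SC3, a T-Rex 293 clone with doxycycline-inducible wild-type androgen receptor, was seeded in phenol red-free DMEM with 10% charcoal-dextran FBS, with or without 10 ng/mL doxycycline. Compound added at 24 h (0.5% DMSO) for 72 h at 37° C. CellTiter-Glo 2.0 luminescence; GI50 from four-parameter fit.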

[3] = tested on: T-Rex 293 cell line SC cells lacking increased expression of progesterone receptor isoform B protein; assay: Cellular growth inhibition, T-Rex 293 SC cells lacking increased progesterone receptor isoform B expression (no doxycycline), CellTiter-Glo; format: cell-based; details: T-Rex 293 SC cells not exposed to doxycycline, 72 hours
Description: (§2) The following types of cells were prepared for this experiment: (i) a T-Rex 293 cell line having increased expression of progesterone receptor isoform B protein due to exposure to doxycycline and (ii) a T-Rex 293 cell line lacking increased expression of progesterone receptor isoform B protein. Ability of the test compounds to inhibit proliferation of the foregoing cell types was evaluated according to the procedures set forth below.
(§3) The doxycycline-inducible progesterone receptor isoform B protein expressing cell line was established using the following protocol: T-Rex 293 cells were purchased from Invitrogen (Cat #R71007) and transfected using Lipofectamine 2000 with the wild-type progesterone receptor B protein sequence cloned into the pcDNA4/TO vector. Transfected cells were selected using 400 μg/mL Zeocin (Invitrogen Cat #R25001). Following selection, single clones were raised and maintained in Dulbecco's Modified Eagle Medium (DMEM) supplemented with 10% w/w Tetracycline-free fetal bovine serum (FBS) and 250 μg/mL Zeocin. Clones were analyzed for expression of progesterone receptor isoform B protein in the presence and absence of 10 ng/ml doxycycline (Sigma Cat #D9891), and a single doxycycline-inducible clone (hereinafter “SC”) was selected for use in downstream assays.
(§4) The SC cells were seeded on poly-D-lysine coated, black clear-bottom 384-well plates at 2500/well, in 25 μL Phenol Red Free Dulbecco's Modified Eagle Medium (DMEM) supplemented with 10% w/w charcoal-dextran treated fetal bovine serum (FBS) and 1% w/w pen-strep, with or without 10 ng/mL doxycycline. Pen-Strep is a commercially available mixture of penicillin G and streptomycin, which is used in mammalian cell culture media to prevent bacterial contamination. Phenol Red Free Dulbecco's Modified Eagle Medium (DMEM) supplemented with 10% w/w charcoal-dextran treated fetal bovine serum (FBS) and 1% w/w pen-strep, with or without 10 ng/mL doxycycline is herein referred to as Treatment Medium. Following seeding of cells in the plates, the plates were spun at 300×g for 30 seconds, then equilibrated to room temperature for 30 minutes, and then deposited in a humidified tissue culture incubator maintained at 37° C. with 5% CO2.
(§5) At 24 hours after seeding of the cells, dilutions of test compound were prepared in DMSO and dissolved in Treatment Medium, to achieve a final DMSO concentration of 0.5% w/w, thereby providing the Test Compound Solution. A 25 μL aliquot of the Test Compound Solution was added to cells in the well plates. An equal volume of a solution containing DMSO and Treatment Medium was used as a negative control. Following treatment of cells with Test Compound Solution or said equal volume of a solution containing DMSO and Treatment Medium, the plates were spun at 300×g for 30 seconds, and then left in an incubator for 72 hours.
(§6) At the end of the treatment duration, cell viability was quantified with CellTiter-Glo 2.0 reagent (Promega Cat #G9243). For this purpose, plates were equilibrated to room temperature for 30 minutes, and then 25 μL of CellTiter-Glo 2.0 reagent was added to cells in the plate wells. Plates were then agitated on a shaker for two minutes at 500 rpm and subsequently incubated at room temperature for 10 minutes. Following incubation, the plates were spun at 3000×g for 30 seconds, then sealed with an optical adhesive cover, and luminescence readings were measured with an EnVision Plate Reader (Perkin Elmer).
(§7) Data was normalized using zero luminescence for baseline. A four-parameter non-linear regression curve fit was applied to dose-response data in GraphPad Prism data analysis software to determine the half-maximal growth inhibitory concentration (GI50) for each test compound.

[4] = tested on: T-Rex 293 cell line SC3 cells lacking increased expression of androgen receptor protein; assay: Cellular growth inhibition, T-Rex 293 SC3 cells lacking increased androgen receptor expression (no doxycycline), CellTiter-Glo; format: cell-based; details: T-Rex 293 SC3 cells lacking increased androgen receptor expression (not exposed to doxycycline), 72 hours, CellTiter-Glo; read-out: GI50
Procedure, shortened: as §1

[5] = tested on: T-Rex 293 cell line SC cells having increased expression of progesterone receptor isoform B protein; assay: Cellular growth inhibition, T-Rex 293 SC cells with increased progesterone receptor isoform B expression (doxycycline), CellTiter-Glo; format: cell-based; details: progesterone receptor isoform B induced with 10 ng/mL doxycycline, 72 hours
Description: as §2, §3, §4, §5, §6, §7

[6] = tested on: T47D cells; assay: Cellular growth inhibition assay for T47D cells, CellTiter-Glo; format: cell-based, human; details: 72 hours treatment, CellTiter-Glo 2.0
Procedure, shortened: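 Growth inhibition as GI50, fitted with four parameters to CellTiter-Glo luminescence after 72 h of compound exposure (0.5% DMSO). Cells were T47D, grown in insulin-supplemented (0.2 units/mL) DMEM with 10% FBS and treated one day post-seeding.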

[7] = target: BRD4-BD1 (Homo sapiens (Human), UniProt O60885); assay: bromoKdELECT assay for binding affinity to BRD4-BD1; details: 11-point 3-fold dilution
Description: (§8) Compounds were tested using a bromoKdELECT assay. T7 phage strains displaying bromodomains were grown in parallel in 24-well blocks in an E. coli host derived from the BL21 strain. E. coli were grown to log-phase and infected with T7 phage from a frozen stock (multiplicity of infection=0.4) and incubated with shaking at 32° C. until lysis (90-150 minutes). The lysates were centrifuged (5,000×g) and filtered (0.2 μm) to remove cell debris. Streptavidin-coated magnetic beads were treated with biotinylated small molecule or acetylated peptide ligands for 30 minutes at room temperature to generate affinity resins for bromodomain assays. The liganded beads were blocked with excess biotin and washed with blocking buffer (SeaBlock (Pierce), 1% BSA, 0.05% Tween 20, 1 mM DTT) to remove unbound ligand and to reduce nonspecific phage binding. Binding reactions were assembled by combining bromodomains, liganded affinity beads, and test compounds in 1× binding buffer (17% SeaBlock, 0.33×PBS, 0.04% Tween 20, 0.02% BSA, 0.004% Sodium azide, 7.4 mM DTT). Test compounds were prepared as 1000× stocks in 100% DMSO. Kds were determined using an 11-point 3-fold compound dilution series with one DMSO control point. All compounds for Kd measurements are distributed by acoustic transfer (non-contact dispensing) in 100% DMSO. The compounds were then diluted directly into the assays such that the final concentration of DMSO was 0.09%. All reactions performed in polypropylene 384-well plates. Each was a final volume of 0.02 ml. The assay plates were incubated at room temperature with shaking for 1 hour and the affinity beads were washed with wash buffer (1×PBS, 0.05% Tween 20). The beads were then resuspended in elution buffer (1×PBS, 0.05% Tween 20, 2 μM non-biotinylated affinity ligand) and incubated at room temperature with shaking for 30 minutes. The bromodomain concentration in the eluates was measured by qPCR.

[8] = target: BRD4-BD2 (Homo sapiens (Human), UniProt O60885); assay: bromoKdELECT assay for binding affinity to BRD4-BD2; details: 11-point 3-fold dilution
Description: as §8

Row | Compound | GI50 ([1]; Homo sapiens) [nM] | GI50 [2] [nM] | GI50 [3] [nM] | GI50 [4] [nM] | GI50 [5] [nM] | GI50 ([6]; Homo sapiens) [nM] | GI50 [1] [nM] | GI50 [6] [nM] | Kd [7] [nM] | Kd [8] [nM]
1 | CCS(=O)(=O)Nc1ccc(Oc2cccc(OCCOCCOCCOC3CCN(c4ccc(C(=O)N[C@H]5CC[C@H](Oc6ccc(C#N)c(Cl)c6)CC5)nn4)CC3)c2)c(-c2cn(C)c(=O)c3[nH]ccc23)c1 [I-2, N-[4-(3-chloro-4-cyano-phenoxy)cyclohexyl]-6-[4-[2-[2-[2-[3-[4-(ethylsulfonylamino)-2-(6-methyl-7-oxo-1H-pyrrolo[2,3-c]pyridin-4-yl)phenoxy]phenoxy]ethoxy]ethoxy]ethoxy]-1-piperidyl]pyridazine-3-carboxamide] | < 500 | < 500 | < 500 | 500 to 1500 | < 500 | < 500 |  |  |  | 
2 | CCS(=O)(=O)Nc1ccc(Oc2cccc(N3CC(OC4CCN(c5ccc(C(=O)N[C@H]6CC[C@H](Oc7ccc(C#N)c(Cl)c7)CC6)nn5)CC4)C3)c2F)c(-c2cn(C)c(=O)c3[nH]ccc23)c1 [I-25] | < 500 | < 500 | < 500 | > 3000 | < 500 | < 500 |  |  |  | 
3 | CCS(=O)(=O)c1ccc(Oc2cccc(OCCN3CCN(c4ccc(C(=O)NC5CCC(Oc6ccc(C#N)c(Cl)c6)CC5)nn4)CC3)c2F)c(-c2cn(C)c(=O)c3[nH]ccc23)c1 (centres unmarked) [I-40, N-[4-(3-chloro-4-cyano-phenoxy)cyclohexyl]-6-[4-[2-[3-[4-ethylsulfonyl-2-(6-methyl-7-oxo-1H-pyrrolo[2,3-c]pyridin-4-yl)phenoxy]-2-fluoro-phenoxy]ethyl]piperazin-1-yl]pyridazine-3-carboxamide] | < 500 | < 500 | < 500 | < 500 | < 500 | < 500 |  |  |  | 
4 | CCS(=O)(=O)c1ccc(Oc2cccc(CCCCN3CC4(C3)CN(c3ccc(C(=O)N[C@H]5CC[C@H](Oc6ccc(C#N)c(Cl)c6)CC5)nn3)C4)c2F)c(-c2cn(C)c(=O)c3[nH]ccc23)c1 [I-47] | < 500 | < 500 | < 500 | < 500 | < 500 | < 500 |  |  |  | 
5 | Cn1cc(-c2cc(C(C)(C)O)ccc2Oc2ccc(OCC3CCN(c4ccc(C(=O)N[C@H]5CC[C@H](Oc6ccc(C#N)c(Cl)c6)CC5)nn4)CC3)cc2)c2cc[nH]c2c1=O [I-96] |  | < 500 | < 500 | < 500 | < 500 |  | < 500 | < 500 |  | 
6 | Cn1cc(-c2cc(C(C)(C)O)ccc2Oc2ccc(OCCN3CCN(c4ccc(C(=O)N[C@H]5CC[C@H](Oc6ccc(C#N)c(Cl)c6)CC5)nn4)CC3)cc2)c2cc[nH]c2c1=O [I-97] | < 500 | < 500 | < 500 | < 500 | < 500 | < 500 |  |  |  | 
7 | CN(CCOc1ccc(Oc2ccc(C(C)(C)O)cc2-c2cn(C)c(=O)c3[nH]ccc23)cc1)c1ccc(C(=O)N[C@H]2CC[C@H](Oc3ccc(C#N)c(Cl)c3)CC2)nn1 [I-98] |  | < 500 | < 500 | < 500 | < 500 |  | < 500 |  |  | 
8 | CN(CCCOc1ccc(Oc2ccc(C(C)(C)O)cc2-c2cn(C)c(=O)c3[nH]ccc23)cc1)c1ccc(C(=O)N[C@H]2CC[C@H](Oc3ccc(C#N)c(Cl)c3)CC2)nn1 [I-99] |  | < 500 | 500 to 1500 | < 500 | < 500 |  | < 500 | 500 to 1500 |  | 
9 | CN(CCc1ccc(Oc2ccc(C(C)(C)O)cc2-c2cn(C)c(=O)c3[nH]ccc23)cc1)c1ccc(C(=O)NC2CCC(Oc3ccc(C#N)c(Cl)c3)CC2)nn1 (centres unmarked) [I-100, N-[4-(3-chloro-4-cyano-phenoxy)cyclohexyl]-6-[2-[4-[4-(1-hydroxy-1-methyl-ethyl)-2-(6-methyl-7-oxo-1H-pyrrolo[2,3-c]pyridin-4-yl)phenoxy]phenyl]ethyl-methyl-amino]pyridazine-3-carboxamide] | < 500 | < 500 | < 500 | < 500 | < 500 | < 500 |  |  |  | 
10 | CN(c1ccc(Oc2ccc(C(C)(C)O)cc2-c2cn(C)c(=O)c3[nH]ccc23)cc1)C1CCN(c2ccc(C(=O)N[C@H]3CC[C@H](Oc4ccc(C#N)c(Cl)c4)CC3)nn2)CC1 [I-137, N-[4-(3-chloro-4-cyano-phenoxy)cyclohexyl]-6-[4-[4-[4-(1-hydroxy-1-methyl-ethyl)-2-(6-methyl-7-oxo-1H-pyrrolo[2,3-c]pyridin-4-yl)phenoxy]-N-methyl-anilino]-1-piperidyl]pyridazine-3-carboxamide] | < 500 | < 500 |  | > 3000 |  | < 500 |  |  | 50 to 500 | 50 to 500
11 | CCS(=O)(=O)c1ccc(Oc2ccc(CCC3CCN(c4ccc(C(=O)N[C@H]5CC[C@H](Oc6ccc(C#N)c(Cl)c6)CC5)nn4)CC3)nc2)c(-c2cn(C)c(=O)c3[nH]ccc23)c1 [I-219] |  | < 500 |  | < 500 |  |  | < 500 | < 500 | 50 to 500 | 50 to 500
